Reference: patent publication US7432245B2, “Pharmaceutical formulation comprising a peptide angiogenesis inhibitor” (Abbott Laboratories Inc., priority 2002, dated 2008)
Counter-ions that a name gives are not always drawn. Where a SMILES comes first, the peptide text is derived from it. [ ]: non-standard residue; d: D form. Nva = CCC[C@H](N)C(=O)O; Sar = CNCC(=O)O

Assay: In vitro release from PLG gels into buffer at 37° C.
Assay type: physicochemical
Conditions: solution of 5% in 2:1 NMP/TA without PLG, 5 mM PBS buffer (pH 7.4), FIG. 1
Experimental: The samples of gel formulations of the acetate salt of formula (Ia) in PLG and NMP/TA were immersed in 5 mM PBS buffer (pH 7.4) and incubated at 37° C. At a predetermined time, 1 mL of the dissolution medium was withdrawn from the dissolution container, filtered, and assayed for the concentration of the acetate salt of formula (Ia) by HPLC. Fresh PBS buffer (1 mL) was added to replace the withdrawn medium.
The in vitro drug release of the acetate salt of formula (Ib) from the PLG gel formulations (IV) and (V) (from Example 6) was determined by the method described in Example 4.
The in vitro drug release profiles of PLG (24 KD) gel formulations were obtained by the methods described in Example 4.
Formulations of valproate (formulation VI), octanoate (formulation VII), and pivalate (formulation VIII) salts of the compound of formula (Ib) were prepared by substituting the appropriate salts (prepared as described in Example 1b) for the acetate salt in Example 6B. […] In addition, a formulation (formulation IX) that contained 6.0% pivalate salt of formula (Ib), 32.9% PLG (13 KD, 50:50 polymer ratio), 40.4% NMP and 20.7% TA was also prepared. The in vitro drug release profiles of formulations VI, VII, VIII, and IX were obtained by the methods described in Example 4 substituting 50 mM phosphate buffer (pH 7.4) for 5 mM PBS buffer. […]

in vitro release profile: no sustained release
SMILES: CCC[C@H](NC(=O)[C@@H](NC(=O)[C@H](NC(=O)[C@@H](NC(=O)CNC(=O)CN(C)C(C)=O)C(C)C)[C@H](C)CC)[C@@H](C)O)C(=O)N[C@H](C(=O)N[C@@H](CCCNC(=N)N)C(=O)N1CCC[C@H]1C(=O)NCC)[C@@H](C)CC [acetate salt of formula (Ia), N-Ac-Sar-Gly-Val-DIle-Thr-Nva-Ile-Arg-ProNHCH2CH3] (Ac-[Sar]GV[dI]T[Nva]IRP-NHEt)
